Experimental data as given in US12291537B2, “Compounds, compositions and methods” (priority 2022, dated 2025).
pIC50: −log10 of the molar value. Square brackets hold non-standard residues; d marks the D form. Peptide text beside a SMILES is read from it. * marks the point of attachment. Dolaproine = CO[C@@H]([C@@H]1CCCN1)[C@@H](C)C(=O)O; Dil = CC[C@H](C)[C@H](NC)[C@@H](CC(=O)O)OC; X1 = C[C@@H](N*)[C@@H](O)c1ccccc1; NMeV = CN[C@H](C(=O)O)C(C)C

Assays:
Format in all cases: cell-based
MDA-MB-468 (TNBC) cells = assay: Cytotoxicity testing of compounds (cell titer-Glo)
Protocol: (§1) They were then incubated at 37° C., 5% CO2 for overnight. […] After 5 days, 30 μL cell titer-Glo Luminescent buffer was added to each well and the plate was incubated for 20 min at room temperature. Luminescence signal was detected by the Envison microplatereader.

[1] = test system: HT-29 (colorectal cancer) cells; assay: Cytotoxicity testing of compounds (cell titer-Glo)
Protocol: as §1

A549, a NSCLC cell line = assay: Cytotoxicity testing of compounds (cell titer-Glo), second round; conditions: A549, second round (Table 2)
Protocol: (§2) HT-29 (colorectal cancer) and MDA-MB-468 (TNBC) cells were harvested and seeded with 3000 cell per well into 96-well cell culture plates respectively. They were then incubated at 37° C., 5% CO2 for overnight. Each compound was diluted 3-fold from 500 nM, and added to each well respectively. After 5 days, 30 μL cell titer-Glo Luminescent buffer was added to each well and the plate was incubated for 20 min at room temperature. Luminescence signal was detected by the Envison microplatereader.
(§3) In a second round of testing, C-2a and C-2b, along with 6 other compounds (C-1a, C-1b, C-3a, C-3b, C-5a, and C-4a) were tested with the same cell lines plus A549, a NSCLC cell line.

[2] = as above; conditions: human
Protocol: as §2, §3

[3] = test system: HT-29, MDA-MB-468 and A549 cells; assay: Cytotoxicity testing of compounds, text statements over the cell lines; conditions: first round; HT-29 and MDA-MB-468
Protocol: as §2, §3

[4] = Cytotoxicity testing of compounds (cell titer-Glo); conditions: human, Min cell viability
Protocol: as §1

[5] = Homo sapiens, second round (Table 2)
[6] = Homo sapiens, HT-29, HT29, second round (Table 2)
[7] = Homo sapiens, 120 h, first round (Table 1), 5 days
[8] = Homo sapiens, HT-29, 120 h, HT29, first round (Table 1), 5 days
[9] = HT29, first round (Table 1), 5 days

Row | Structure (SMILES) | pIC50 (MDA-MB-468 (TNBC) cells; [5]) | pIC50 [1, 6] | pIC50 (A549, a NSCLC cell line; Homo sapiens) | viability at 5 days [2] [%] | inhibition of cells proliferation [3] | further results
1 | CC[C@@]1(O)C(=O)OCc2c1cc1n(c2=O)Cc2c-1nc1cc(F)c(C)c3c1c2CC(N)C3 (mixture of isomers) [Compound C-5a] | 8.62 | 7.58 | 7.66 | 19.4 | – | –
2 | CC[C@@]1(O)C(=O)OCc2c1cc1n(c2=O)Cc2c-1nc1cc(F)c(C)c3c1c2CC[C@@H]3N [Compound C-1a] | 8.44 | 7.68 | 7.78 | 20.3 | – | –
3 | CC[C@@]1(O)C(=O)OCc2c1cc1n(c2=O)Cc2c-1nc1cc(F)c(C)c3c1c2CC[C@H]3N [Compound C-1b] | 8.51 | 7.73 | 7.86 | 14.5 | – | –
4 | CCc1c(F)cc2nc3c(c4c2c1CC[C@H]4N)Cn1c-3cc2c(c1=O)COC(=O)[C@]2(O)CC [Compound C-2a] | 8.25 | 7.40 | 7.72 | 19.7 | inhibited cells proliferation in a concentration-dependent manner | viability at 5 days [4]: 4.6%; pIC50 (MDA-MB-468 (TNBC) cells; [7]): 8.80; pIC50 [1, 8]: 8.24; Min cell viability ([1]; human, 5 days): 4.8
5 | CCc1c(F)cc2nc3c(c4c2c1CC[C@@H]4N)Cn1c-3cc2c(c1=O)COC(=O)[C@]2(O)CC [Compound C-2b] | 8.28 | ~7.28 | 7.62 | 23.6 | inhibited cells proliferation in a concentration-dependent manner | viability at 5 days [4]: 1.9%; pIC50 (MDA-MB-468 (TNBC) cells; [7]): 9.00; pIC50 [1, 8]: 8.25; Min cell viability ([1]; human, 5 days): 3.7
6 | CC[C@@]1(O)C(=O)OCc2c1cc1n(c2=O)Cc2c-1nc1cc(F)c(C(C)C)c3c1c2[C@H](N)CC3 [Compound C-3a] | 8.06 | 7.12 | 7.44 | 23.8 | – | –
7 | CC[C@@]1(O)C(=O)OCc2c1cc1n(c2=O)Cc2c-1nc1cc(F)c(C(C)C)c3c1c2[C@@H](N)CC3 [Compound C-3b] | 7.75 | – | 6.94 | 30.6 | – | –
8 | CC[C@@]1(O)C(=O)OCc2c1cc1n(c2=O)Cc2c-1nc1cc(F)c(C)c3c1c2[C@H](Nc1cccc(CN)c1)CC3 [Compound C-4a] | 6.94 | – | – | 83 | – | –
9 | CC[C@@]1(O)C(=O)OCc2c1cc1n(c2=O)Cc2c-1nc1cc(F)c(C)c3c1c2[C@@H](NC(=O)CO)CC3 [DXD, reference compound] | – | – | – | – | inhibited cells proliferation in a concentration-dependent manner | pIC50 (MDA-MB-468 (TNBC) cells; first round (Table 1), 5 days): 8.49; Min cell viability (MDA-MB-468 (TNBC) cells; first round (Table 1), 5 days): 1.2; pIC50 (MDA-MB-468 (TNBC) cells; second round (Table 2)): 8.38; Min cell viability (MDA-MB-468 (TNBC) cells; second round (Table 2)): 4.1; pIC50 [1, 9]: 7.60; Min cell viability [1, 9]: 4.0; pIC50 ([1]; HT29, second round (Table 2)): 6.98; Min cell viability ([1]; HT29, second round (Table 2)): 11.4; pIC50 (A549, a NSCLC cell line): 6.90; Min cell viability (A549, a NSCLC cell line): 28.4
10 | CC[C@H](C)[C@@H]([C@@H](CC(=O)N1CCC[C@H]1[C@H](OC)[C@@H](C)C(=O)N[C@H](C)[C@@H](O)c1ccccc1)OC)N(C)C(=O)[C@@H](NC(=O)[C@@H](NC)C(C)C)C(C)C [MMAE, reference compound] (H-[NMeV]V[Dil][Dolaproine]-X1) | – | – | – | – | inhibited cells proliferation in a concentration-dependent manner | pIC50 (MDA-MB-468 (TNBC) cells; first round (Table 1), 5 days): 10.00; Min cell viability (MDA-MB-468 (TNBC) cells; first round (Table 1), 5 days): 4.6; pIC50 (MDA-MB-468 (TNBC) cells; second round (Table 2)): 9.52; Min cell viability (MDA-MB-468 (TNBC) cells; second round (Table 2)): 6.3; pIC50 [1, 9]: ~9.30; Min cell viability [1, 9]: 21.3; pIC50 ([1]; HT29, second round (Table 2)): 8.96; Min cell viability ([1]; HT29, second round (Table 2)): 35.5; pIC50 (A549, a NSCLC cell line): 8.70
